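Protocol summary: plate cells (96-well), add compound at 5 concentrations, incubate 48 h, interpolate endpoints linearly. Here, GI50 denotes the concentration required for 50% inhibition of growth. TGI denotes the concentration required for complete inhibition of growth.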
Columns and labels:
Experiment in all cases: inhibition of tumour cell growth, NCI panel, 48 h
[1] = tested on: 786-0 renal
[2] = tested on: A498 renal
[3] = tested on: A549 NSCLC
[4] = tested on: ACHN renal
[5] = tested on: BT-549 breast
[6] = tested on: CAKI-1 renal
[7] = tested on: CCRF-CEM leukemia
[8] = tested on: COLO 205 colon
[9] = tested on: DU-145 prostate
[10] = tested on: EKVX NSCLC
[11] = tested on: HCC-2998 colon
[12] = tested on: HCT-116 colon
[13] = tested on: HCT-15 colon
[14] = tested on: HL-60(TB) leukemia
[15] = tested on: HOP-62 NSCLC
[16] = tested on: HOP-92 NSCLC
[17] = tested on: HS 578T breast
[18] = tested on: HT29 colon
[19] = tested on: IGROV1 ovarian
[20] = tested on: K-562 leukemia
[21] = tested on: KM12 colon
[22] = tested on: LOX IMVI melanoma
[23] = tested on: M14 melanoma
[24] = tested on: MALME-3M melanoma
[25] = tested on: MCF7 breast
[26] = tested on: MDA-MB-231 breast
[27] = tested on: MDA-MB-435
[28] = tested on: MOLT-4 leukemia
[29] = tested on: NCI-H226 lung
[30] = tested on: NCI-H23 lung
[31] = tested on: NCI-H460 lung
[32] = tested on: NCI-H522 lung
[33] = tested on: NCI/ADR-RES ovarian
[34] = tested on: OVCAR-3 ovarian
[35] = tested on: OVCAR-4 ovarian
[36] = tested on: OVCAR-5 ovarian
[37] = tested on: OVCAR-8 ovarian
[38] = tested on: PC-3 prostate
[39] = tested on: RPMI-8226 leukemia
[40] = tested on: RXF 393 renal
[41] = tested on: SF-268 CNS
[42] = tested on: SF-295 CNS
[43] = tested on: SF-539 CNS
[44] = tested on: SK-MEL-2 melanoma
[45] = tested on: SK-MEL-28 melanoma
[46] = tested on: SK-MEL-5 melanoma
[47] = tested on: SK-OV-3 ovarian
[48] = tested on: SN12C renal
[49] = tested on: SNB-19 CNS
[50] = tested on: SNB-75 CNS
[51] = tested on: SR leukemia
[52] = tested on: SW-620 colon
[53] = tested on: T-47D breast
[54] = tested on: TK-10 renal
[55] = tested on: U251 CNS
[56] = tested on: UACC-257 melanoma
[57] = tested on: UACC-62 melanoma
[58] = tested on: UO-31 renal
[59] = tested on: MDA-N

CNC(=O)c1c(NC(=O)c2cccc(C(F)(F)F)c2)sc2c1CCC(=O)C2 gave a GI50 [1] of 0.447 µM, a TGI [1] greater than 36.8 µM and a GI50 [2] of 1.67 µM. The TGI [2] was 5.71 µM, the GI50 [3] was 0.387 µM and the TGI [3] was greater than 34.3 µM. For the same molecule, the GI50 [4] was 0.323 µM, the TGI [4] was 1.34 µM and the GI50 [5] was 0.352 µM. For the same molecule, the TGI [5] was 2.83 µM, the GI50 [6] was 0.282 µM and the TGI [6] was 1.22 µM. For the same molecule, the GI50 [7] was 0.113 µM, the TGI [7] was 1.49 µM and the GI50 [8] was 0.382 µM. The TGI [8] was 1.48 µM, the GI50 [9] was 3.22 µM and the TGI [9] was greater than 100 µM. It also gave a GI50 [10] of 0.593 µM, a TGI [10] greater than 21.7 µM and a GI50 [11] of 0.656 µM. It also gave a TGI [11] of 2.52 µM, a GI50 [12] of 0.199 µM and a TGI [12] of 1.59 µM. For the same molecule, the GI50 [13] was 0.249 µM, the TGI [13] was 1.51 µM and the GI50 [14] was 0.318 µM. The TGI [14] was 1.98 µM, the GI50 [15] was 1.94 µM and the TGI [15] was greater than 48.6 µM. The GI50 [16] was 0.383 µM, the TGI [16] was 2.58 µM and the GI50 [17] was 0.425 µM. For the same molecule, the TGI [17] was 45.9 µM, the GI50 [18] was 0.347 µM and the GI50 [19] was 0.339 µM. It also gave a TGI [19] of 2.26 µM, a GI50 [20] of 0.135 µM and a TGI [20] greater than 100 µM. It also gave a GI50 [21] of 0.423 µM, a TGI [21] of 1.96 µM and a GI50 [22] of 0.339 µM. The TGI [22] was 1.66 µM, the GI50 [23] was 0.417 µM and the TGI [23] was 4 µM. For the same molecule, the GI50 [24] was 0.373 µM, the TGI [24] was 2.28 µM and the GI50 [25] was 0.283 µM. The TGI [25] was 2.84 µM, the GI50 [26] was 0.332 µM and the TGI [26] was 1.88 µM. The GI50 [27] was 0.544 µM, the TGI [27] was 3.1 µM and the GI50 [28] was 0.356 µM. It also gave a TGI [28] of 4.63 µM, a GI50 [29] of 1.61 µM and a TGI [29] of 5.71 µM. The GI50 [30] was 0.318 µM, the TGI [30] was 7.56 µM and the GI50 [31] was 0.365 µM. It also gave a TGI [31] greater than 100 µM, a GI50 [32] of 0.075 µM and a TGI [32] of 0.549 µM. It also gave a GI50 [33] of 0.349 µM, a TGI [33] of 1.72 µM and a GI50 [34] of 0.448 µM. It also gave a TGI [34] of 2.04 µM, a GI50 [35] of 0.389 µM and a TGI [35] of 1.44 µM. It also gave a GI50 [36] of 0.465 µM, a TGI [36] of 2.73 µM and a GI50 [37] of 0.324 µM. The TGI [37] was greater than 100 µM, the GI50 [38] was 0.139 µM and the TGI [38] was 1.19 µM. For the same molecule, the GI50 [39] was 0.198 µM, the TGI [39] was 0.781 µM and the GI50 [40] was 0.326 µM. For the same molecule, the TGI [40] was 1.97 µM, the GI50 [41] was 0.486 µM and the TGI [41] was greater than 100 µM. The GI50 [42] was 0.36 µM, the TGI [42] was 1.88 µM and the GI50 [43] was 0.339 µM. For the same molecule, the TGI [43] was 1.67 µM, the GI50 [44] was 0.874 µM and the TGI [44] was 3.5 µM. The GI50 [45] was 0.837 µM, the TGI [45] was greater than 100 µM and the GI50 [46] was 0.462 µM. For the same molecule, the TGI [46] was 1.66 µM, the GI50 [47] was 2.22 µM and the TGI [47] was 8.24 µM. For the same molecule, the GI50 [48] was 0.361 µM, the TGI [48] was greater than 20.7 µM and the GI50 [49] was 0.356 µM. For the same molecule, the TGI [49] was greater than 100 µM, the GI50 [50] was 0.575 µM and the TGI [50] was 5.27 µM. For the same molecule, the GI50 [51] was 0.191 µM, the TGI [51] was greater than 100 µM and the GI50 [52] was 0.254 µM. For the same molecule, the TGI [52] was 1.75 µM, the GI50 [53] was 0.305 µM and the TGI [53] was 2.29 µM. The GI50 [54] was 0.469 µM, the TGI [54] was greater than 40.8 µM and the GI50 [55] was 0.259 µM. For the same molecule, the TGI [55] was 2.73 µM, the GI50 [56] was 1.9 µM and the TGI [56] was 7.3 µM. The GI50 [57] was 0.414 µM, the TGI [57] was 2.14 µM and the GI50 [58] was 0.197 µM. For the same molecule, the TGI [58] was 0.77 µM.
With CC1(C)CN(c2ccccc2)C(=O)C1OC(=O)[C@@]1(C)C[C@@H]2C=C[C@H]1C2 (some centres not stated) the TGI [1] was 39.2 µM, the TGI [2] was 61.3 µM and the TGI [3] was 83.7 µM. For the same molecule, the TGI [4] was greater than 100 µM, the TGI [5] was 82.5 µM and the TGI [6] was 61.5 µM. For the same molecule, the TGI [7] was 81.4 µM, the TGI [8] was 34 µM and the TGI [9] was greater than 100 µM. It also gave a TGI [10] of 59.9 µM, a TGI [12] of 35.8 µM and a TGI [13] of 55.1 µM. It also gave a TGI [14] of 46.3 µM, a TGI [15] of 40.8 µM and a TGI [16] of 60.6 µM. It also gave a TGI [17] of 54.7 µM, a TGI [18] of 28.8 µM and a TGI [19] of 41.3 µM. It also gave a TGI [20] greater than 100 µM, a TGI [21] of 45.2 µM and a TGI [22] of 40.3 µM. It also gave a TGI [23] of 40.1 µM, a TGI [24] of 28.3 µM and a TGI [25] of 58 µM. It also gave a TGI [26] of 79.3 µM, a TGI [27] of 42 µM and a TGI [59] of 41.6 µM. It also gave a TGI [28] greater than 100 µM, a TGI [29] of 53.6 µM and a TGI [30] of 56 µM. The TGI [31] was 55 µM, the TGI [33] was 52.2 µM and the TGI [34] was greater than 100 µM. For the same molecule, the TGI [35] was 39.9 µM, the TGI [36] was 56.6 µM and the TGI [37] was greater than 100 µM. It also gave a TGI [38] of 83.2 µM, a TGI [39] of 30 µM and a TGI [40] of 35.4 µM. It also gave a TGI [41] of 82.5 µM, a TGI [42] of 46.7 µM and a TGI [43] of 52.9 µM. The TGI [44] was 35.4 µM, the TGI [45] was 35.1 µM and the TGI [46] was 29.4 µM. It also gave a TGI [47] of 94.7 µM, a TGI [48] of 49.8 µM and a TGI [49] of 65.5 µM. It also gave a TGI [50] of 75 µM, a TGI [52] greater than 100 µM and a TGI [53] of 73.2 µM. The TGI [54] was 64.7 µM, the TGI [55] was 43.9 µM and the TGI [56] was 42.5 µM. For the same molecule, the TGI [57] was 41.4 µM and the TGI [58] was 30.8 µM.
CCOP(=O)(OCC)/C(=C\N1C(=O)CC(=O)NC1=S)C(=O)OC showed a TGI [1] greater than 100 µM, a TGI [2] greater than 100 µM and a TGI [3] greater than 100 µM. The TGI [4] was greater than 100 µM, the TGI [5] was greater than 100 µM and the TGI [6] was greater than 100 µM. For the same molecule, the TGI [8] was greater than 100 µM, the TGI [9] was greater than 100 µM and the TGI [10] was greater than 100 µM. For the same molecule, the TGI [11] was greater than 100 µM, the TGI [12] was greater than 100 µM and the TGI [13] was greater than 100 µM. For the same molecule, the TGI [14] was greater than 100 µM, the TGI [15] was greater than 100 µM and the TGI [16] was greater than 100 µM. It also gave a TGI [18] greater than 100 µM, a TGI [19] greater than 100 µM and a TGI [21] greater than 100 µM. It also gave a TGI [22] greater than 100 µM, a TGI [23] greater than 100 µM and a TGI [25] greater than 100 µM. The TGI [26] was greater than 100 µM, the TGI [27] was greater than 100 µM and the TGI [59] was greater than 100 µM. It also gave a TGI [28] greater than 100 µM, a TGI [29] greater than 100 µM and a TGI [30] greater than 100 µM. It also gave a TGI [31] greater than 100 µM, a TGI [33] greater than 100 µM and a TGI [34] greater than 100 µM. The TGI [35] was greater than 100 µM, the TGI [36] was greater than 100 µM and the TGI [37] was greater than 100 µM. For the same molecule, the TGI [40] was greater than 100 µM, the TGI [41] was greater than 100 µM and the TGI [42] was greater than 100 µM. It also gave a TGI [43] greater than 100 µM, a TGI [44] greater than 100 µM and a TGI [45] greater than 100 µM. For the same molecule, the TGI [46] was greater than 100 µM, the TGI [47] was greater than 100 µM and the TGI [48] was greater than 100 µM. For the same molecule, the TGI [49] was greater than 100 µM, the TGI [50] was greater than 100 µM and the TGI [52] was greater than 100 µM. For the same molecule, the TGI [53] was greater than 100 µM, the TGI [54] was greater than 100 µM and the TGI [55] was greater than 100 µM. The TGI [56] was greater than 100 µM, the TGI [57] was greater than 100 µM and the TGI [58] was greater than 100 µM.
